From patent US12077503B2, “Substituted cyclic amides and their use as herbicides” (FMC CORPORATION, priority 2015, dated 2024)

What was measured:
Type in all cases: in vivo
[1] = tested on: redroot pigweed (Amaranthus retroflexus); assay: Test G Pre-Emergence Protocol; details: Amaranthus retroflexus, pre-emergence, 312 h, evaluated after 13 days
Summary of the method: (§1)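 Scores are visual damage ratings from 0 (no damage) to 100 (total plant kill), taken 13 days after treatment. Compound was sprayed one day post-sowing at 15.625, 62.5 or 250 g/ha in 50:50 acetone/water with 0.5% Tween 20.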

[2] = tested on: ivy-leaved morning glory (Ipomoea hederacea); assay: Test G Pre-Emergence Protocol; details: Ipomoea, pre-emergence, 312 h, evaluated after 13 days
Summary of the method: as §1

[3] = tested on: barnyardgrass (Echinochloa crus-galli); assay: Test G Pre-Emergence Protocol; details: Echinochloa crus-galli, pre-emergence, 312 h, evaluated after 13 days
Summary of the method: as §1

[4] = tested on: giant foxtail (Setaria faberi); assay: Test G Pre-Emergence Protocol; details: Setaria faberi, pre-emergence, 312 h, evaluated after 13 days
Summary of the method: as §1

[5] = tested on: velvetleaf (Abutilon theophrasti); assay: Test G Pre-Emergence Protocol; details: Abutilon theophrasti, pre-emergence, 312 h, evaluated after 13 days
Summary of the method: as §1

corn (Zea mays) [6] = assay: Test G Pre-Emergence Protocol; details: Zea mays, pre-emergence, 312 h, evaluated after 13 days
Summary of the method: as §1

[7] = tested on: redroot pigweed (Amaranthus retroflexus); assay: Test G Post-Emergence Protocol; details: Amaranthus retroflexus, post-emergence, 312 h
Summary of the method: (§2)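 Foliar application was made 8 days after sowing, using an aqueous spray of the active in acetone/water (50:50) with 0.5% Tween 20, at doses of 15.625, 62.5 or 250 g/ha. Injury was assessed 13 days later, where 100 meant the plant was fully damaged.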

[8] = tested on: ivy-leaved morning glory (Ipomoea hederacea); assay: Test G Post-Emergence Protocol; details: Ipomoea, post-emergence, 312 h
Summary of the method: as §2

[9] = tested on: barnyardgrass (Echinochloa crus-galli); assay: Test G Post-Emergence Protocol; details: Echinochloa crus-galli, post-emergence, 312 h
Summary of the method: as §2

[10] = tested on: giant foxtail (Setaria faberi); assay: Test G Post-Emergence Protocol; details: Setaria faberi, post-emergence, 312 h
Summary of the method: as §2

[11] = tested on: velvetleaf (Abutilon theophrasti); assay: Test G Post-Emergence Protocol; details: Abutilon theophrasti, post-emergence, 312 h
Summary of the method: as §2

corn (Zea mays) [12] = assay: Test G Post-Emergence Protocol; details: Zea mays, post-emergence, 312 h
Summary of the method: as §2

Q: `Cc1c(Cl)ncnc1NC(=O)[C@@H]1C(=O)N(C)C[C@H]1c1ccc(C(F)(F)F)cc1` (racemic) [Compound 1581] was tested. Which pest or weed control at 15.625 g/ha ([1]; 15.625 g ai/ha, read-out: Pigweed, Redroot damage rating (100=total damage to plant; 0=no damage to plant)) did it give?
A: Its pest or weed control at 15.625 g/ha is 0%.

Q: And the pest or weed control at 62.5 g/ha ([1]; 62.5 g ai/ha, 100=total damage to plant, 0=no damage to plant, read-out: plant damage rating, Pigweed, Redroot)?
A: The pest or weed control at 62.5 g/ha was 0%.

Q: What about the pest or weed control at 250 g/ha ([1]; 250 g ai/ha, read-out: Pigweed, Redroot damage rating (100=total damage to plant; 0=no damage to plant)) of the same compound?
A: Its pest or weed control at 250 g/ha is 0%.

Q: And the pest or weed control at 15.625 g/ha ([2]; 15.625 g ai/ha, read-out: Morning-glory, Ivy-leaved damage rating (100=total damage to plant; 0=no damage to plant))?
A: The pest or weed control at 15.625 g/ha was 0%.

Q: What about the pest or weed control at 62.5 g/ha ([2]; 62.5 g ai/ha, 100=total damage to plant, 0=no damage to plant, read-out: plant damage rating, Morningglory, Ivy-leaved) of the same compound?
A: The pest or weed control at 62.5 g/ha was 0%.

Q: And the pest or weed control at 250 g/ha ([2]; 250 g ai/ha, read-out: Morningglory, Ivy-leaved damage rating (100=total damage to plant; 0=no damage to plant))?
A: The pest or weed control at 250 g/ha was 0%.

Q: What about the pest or weed control at 15.625 g/ha ([3]; 15.625 g ai/ha, read-out: Barnyard grass damage rating (100=total damage to plant; 0=no damage to plant)) of the same compound?
A: The pest or weed control at 15.625 g/ha was 0%.

Q: And the pest or weed control at 62.5 g/ha ([3]; 62.5 g ai/ha, 100=total damage to plant, 0=no damage to plant, read-out: plant damage rating, Barnyardgrass)?
A: Its pest or weed control at 62.5 g/ha is 0%.

Q: And the pest or weed control at 250 g/ha ([3]; 250 g ai/ha, read-out: Barnyardgrass damage rating (100=total damage to plant; 0=no damage to plant))?
A: The pest or weed control at 250 g/ha was 0%.

Q: What about the pest or weed control at 15.625 g/ha ([4]; 15.625 g ai/ha, read-out: Foxtail, Giant damage rating (100=total damage to plant; 0=no damage to plant)) of the same compound?
A: The pest or weed control at 15.625 g/ha was 0%.

Q: What about the pest or weed control at 62.5 g/ha ([4]; 62.5 g ai/ha, 100=total damage to plant, 0=no damage to plant, read-out: plant damage rating, Foxtail, Giant) of the same compound?
A: Its pest or weed control at 62.5 g/ha is 0%.

Q: And the pest or weed control at 250 g/ha ([4]; 250 g ai/ha, read-out: Foxtail, Giant damage rating (100=total damage to plant; 0=no damage to plant))?
A: The pest or weed control at 250 g/ha was 0%.

Q: What about the pest or weed control at 15.625 g/ha ([5]; 15.625 g ai/ha, read-out: Velvetleaf damage rating (100=total damage to plant; 0=no damage to plant)) of the same compound?
A: The pest or weed control at 15.625 g/ha was 0%.

Q: And the pest or weed control at 62.5 g/ha ([5]; 62.5 g ai/ha, 100=total damage to plant, 0=no damage to plant, read-out: plant damage rating, Velvetleaf)?
A: Its pest or weed control at 62.5 g/ha is 0%.

Q: What about the pest or weed control at 250 g/ha ([5]; 250 g ai/ha, read-out: Velvetleaf damage rating (100=total damage to plant; 0=no damage to plant)) of the same compound?
A: Its pest or weed control at 250 g/ha is 0%.

Q: What about the plant injury at 15.625 g/ha (corn (Zea mays) [6]; 15.625 g ai/ha, read-out: Corn damage rating (100=total damage to plant; 0=no damage to plant)) of the same compound?
A: The plant injury at 15.625 g/ha was 0%.

Q: What about the plant injury at 62.5 g/ha (corn (Zea mays) [6]; 62.5 g ai/ha, 100=total damage to plant, 0=no damage to plant, read-out: plant damage rating, Corn) of the same compound?
A: The plant injury at 62.5 g/ha was 0%.

Q: What about the plant injury at 250 g/ha (corn (Zea mays) [6]; 250 g ai/ha, read-out: Corn damage rating (100=total damage to plant; 0=no damage to plant)) of the same compound?
A: The plant injury at 250 g/ha was 0%.

Q: And the pest or weed control at 15.625 g/ha ([7]; 15.625 g ai/ha, evaluated after 13 days (100=total damage to plant; 0=no damage to plant), read-out: Pigweed, Redroot damage rating)?
A: The pest or weed control at 15.625 g/ha was 0%.

Q: And the pest or weed control at 62.5 g/ha ([7]; 62.5 g ai/ha, evaluated after 13 days, read-out: Pigweed, Redroot damage rating (100=total damage to plant; 0=no damage to plant))?
A: Its pest or weed control at 62.5 g/ha is 0%.

Q: And the pest or weed control at 250 g/ha ([7]; 250 g ai/ha, evaluated after 13 days, read-out: damage to plant, Pigweed, Redroot (100=total damage to plant; 0=no damage to plant))?
A: The pest or weed control at 250 g/ha was 0%.

Q: What about the pest or weed control at 15.625 g/ha ([8]; 15.625 g ai/ha, evaluated after 13 days (100=total damage to plant; 0=no damage to plant), read-out: Morningglory, Ivy-leaved damage rating) of the same compound?
A: The pest or weed control at 15.625 g/ha was 0%.

Q: What about the pest or weed control at 62.5 g/ha ([8]; 62.5 g ai/ha, evaluated after 13 days, read-out: Morningglory, Ivy-leaved damage rating (100=total damage to plant; 0=no damage to plant)) of the same compound?
A: Its pest or weed control at 62.5 g/ha is 0%.

Q: And the pest or weed control at 250 g/ha ([8]; 250 g ai/ha, evaluated after 13 days, read-out: damage to plant, Morningglory, Ivy-leaved (100=total damage to plant; 0=no damage to plant))?
A: The pest or weed control at 250 g/ha was 0%.

Q: What about the pest or weed control at 15.625 g/ha ([9]; 15.625 g ai/ha, evaluated after 13 days (100=total damage to plant; 0=no damage to plant), read-out: Barnyardgrass damage rating) of the same compound?
A: Its pest or weed control at 15.625 g/ha is 0%.

Q: What about the pest or weed control at 62.5 g/ha ([9]; 62.5 g ai/ha, evaluated after 13 days, read-out: Barnyardgrass damage rating (100=total damage to plant; 0=no damage to plant)) of the same compound?
A: Its pest or weed control at 62.5 g/ha is 0%.

Q: What about the pest or weed control at 250 g/ha ([9]; 250 g ai/ha, evaluated after 13 days, read-out: damage to plant, Barnyardgrass (100=total damage to plant; 0=no damage to plant)) of the same compound?
A: The pest or weed control at 250 g/ha was 10%.

Q: And the pest or weed control at 15.625 g/ha ([10]; 15.625 g ai/ha, evaluated after 13 days (100=total damage to plant; 0=no damage to plant), read-out: Foxtail, Giant damage rating)?
A: The pest or weed control at 15.625 g/ha was 0%.

Q: What about the pest or weed control at 62.5 g/ha ([10]; 62.5 g ai/ha, evaluated after 13 days, read-out: Foxtail, Giant damage rating (100=total damage to plant; 0=no damage to plant)) of the same compound?
A: Its pest or weed control at 62.5 g/ha is 0%.

Q: And the pest or weed control at 250 g/ha ([10]; 250 g ai/ha, evaluated after 13 days, read-out: damage to plant, Foxtail, Giant (100=total damage to plant; 0=no damage to plant))?
A: Its pest or weed control at 250 g/ha is 0%.

Q: And the pest or weed control at 15.625 g/ha ([11]; 15.625 g ai/ha, evaluated after 13 days (100=total damage to plant; 0=no damage to plant), read-out: Velvetleaf damage rating)?
A: Its pest or weed control at 15.625 g/ha is 0%.

Q: And the pest or weed control at 62.5 g/ha ([11]; 62.5 g ai/ha, evaluated after 13 days, read-out: Velvetleaf damage rating (100=total damage to plant; 0=no damage to plant))?
A: The pest or weed control at 62.5 g/ha was 0%.

Q: What about the pest or weed control at 250 g/ha ([11]; 250 g ai/ha, evaluated after 13 days, read-out: damage to plant, Velvetleaf (100=total damage to plant; 0=no damage to plant)) of the same compound?
A: The pest or weed control at 250 g/ha was 0%.

Q: What about the plant injury at 15.625 g/ha (corn (Zea mays) [12]; 15.625 g ai/ha, evaluated after 13 days (100=total damage to plant; 0=no damage to plant), read-out: Corn damage rating) of the same compound?
A: Its plant injury at 15.625 g/ha is 0%.

Q: And the plant injury at 62.5 g/ha (corn (Zea mays) [12]; 62.5 g ai/ha, evaluated after 13 days, read-out: Corn damage rating (100=total damage to plant; 0=no damage to plant))?
A: The plant injury at 62.5 g/ha was 0%.

Q: What about the plant injury at 250 g/ha (corn (Zea mays) [12]; 250 g ai/ha, evaluated after 13 days, read-out: damage to plant, Corn (100=total damage to plant; 0=no damage to plant)) of the same compound?
A: The plant injury at 250 g/ha was 0%.
